These are literature values, as cited in patent US20060189608A1, “Methods for treating ocular angiogenesis, retinal edema, retinal ischemia, and diabetic retinopathy using selective RTK inhibitors” (Alcon, Inc., priority 2005, published 2006).

For data set [1], the system named is preretinal and choroidal NV. The note with it: oral administration, mice; cited from earlier work.
In the next data set the test system is diabetic macular edema. The note with it: human patients with diabetic macular edema, cited from earlier work.

With `CO[C@@H]1[C@H](N(C)C(=O)c2ccccc2)C[C@H]2O[C@]1(C)n1c3ccccc3c3c4c(c5c6ccccc6n2c5c31)C(=O)NC4` [PKC-412], the “effect on preretinal and choroidal NV” value in data set [1] is “inhibited both preretinal and choroidal NV in mice”. Besides, the “macular edema and visual acuity” value in the data set with diabetic macular edema (pilot results) is “a reduction in macular edema and an improvement in visual acuity”. The “liver toxicity” value with diabetic macular edema was “concerns related to liver toxicity halted the clinical trials”.
